Source: US12435062B2, “Amide compounds and uses thereof” (HUTCHISON MEDIPHARMA LIMITED, priority 2020, dated 2025)

Columns and labels:
[1] = molecular target: Recombinant human CSF1R kinase (Homo sapiens (Human), UniProt P07333); assay type: biochemical; conditions: Z-LYTE Tyr 1 peptide substrate
Ba/F3^BCR-FMS-11 cells = assay: Cell proliferation experiment (Ba/F3^BCR-FMS-11, cckit-8); assay type: cell-based, mouse; conditions: Ba/F3^BCR-FMS-11 cell proliferation
Procedure: Cell Proliferation Experiment
Ba/F3^BCR-FMS-11, mouse primary B lymphocytes stably expressing the BCR-FMS fusion gene. The cells were cultured in an RPMI 1640 medium containing 10% FBS.
(§1) 2. Reagents and instruments
• cckit-8 kit: Dojindo, 9 CK04; • Envision: Perkin Elmer; • Cell culture plate: Facol, 9353027. 3. Experimental steps
The BCR-FMS fusion gene was transfected into Ba/F3 cells, and the cell line Ba/F3^BCR-FMS-11 that stably expresses BCR-FMS and grows depending on CSF-1R was screened. Ba/F3^BCR-FMS-11 cell proliferation experiments is completed by using the Cell Counting kit cckit-8 in a 96-well plate. In a 96-well plate, 5000/well of Ba/F3^BCR-FMS-11 cells were inoculated at 100 μL/well. […] 10 μL of the compound dilutions with the above 8 concentrations were added to the culture cell wells. The culture was incubated in a 37° C. and 5% CO2 cell incubator for 72 hours. 10 μL of Cell Counting kit cckit-8 detection reagent was added to each well, and incubated at 37° C. and 5% CO2 in a cell incubator for another 1 h. The optical density absorption value at 450 nm of each well was detected by using Perkin Elmer Envision instrument.
wherein • Drug-treated well read-out: indicating the optical density signal of a cell well with the test compound treatment. • Cell well read-out: indicating the optical density signal of a cell well not treated with the test compound (only 0.5% DMSO). • Background read-out: indicating the optical density signal of a well with the cell medium. 5. Calculation of IC50: obtained by using XL-Fit 5.3 software. 6. Test results

[2] = molecular target: CSF1R phosphorylation in THP-1 cells (Homo sapiens (Human), UniProt P07333); assay: Detection of CSF1R phosphorylation activity at cell level (THP-1, M-CSF stimulated, ELISA); assay type: cell-based; conditions: p-CSF1R ELISA, compound 60 min, 300 ng/mL M-CSF 1 min
Sequence of CSF1R phosphorylation in THP-1 cells (P07333 20-972): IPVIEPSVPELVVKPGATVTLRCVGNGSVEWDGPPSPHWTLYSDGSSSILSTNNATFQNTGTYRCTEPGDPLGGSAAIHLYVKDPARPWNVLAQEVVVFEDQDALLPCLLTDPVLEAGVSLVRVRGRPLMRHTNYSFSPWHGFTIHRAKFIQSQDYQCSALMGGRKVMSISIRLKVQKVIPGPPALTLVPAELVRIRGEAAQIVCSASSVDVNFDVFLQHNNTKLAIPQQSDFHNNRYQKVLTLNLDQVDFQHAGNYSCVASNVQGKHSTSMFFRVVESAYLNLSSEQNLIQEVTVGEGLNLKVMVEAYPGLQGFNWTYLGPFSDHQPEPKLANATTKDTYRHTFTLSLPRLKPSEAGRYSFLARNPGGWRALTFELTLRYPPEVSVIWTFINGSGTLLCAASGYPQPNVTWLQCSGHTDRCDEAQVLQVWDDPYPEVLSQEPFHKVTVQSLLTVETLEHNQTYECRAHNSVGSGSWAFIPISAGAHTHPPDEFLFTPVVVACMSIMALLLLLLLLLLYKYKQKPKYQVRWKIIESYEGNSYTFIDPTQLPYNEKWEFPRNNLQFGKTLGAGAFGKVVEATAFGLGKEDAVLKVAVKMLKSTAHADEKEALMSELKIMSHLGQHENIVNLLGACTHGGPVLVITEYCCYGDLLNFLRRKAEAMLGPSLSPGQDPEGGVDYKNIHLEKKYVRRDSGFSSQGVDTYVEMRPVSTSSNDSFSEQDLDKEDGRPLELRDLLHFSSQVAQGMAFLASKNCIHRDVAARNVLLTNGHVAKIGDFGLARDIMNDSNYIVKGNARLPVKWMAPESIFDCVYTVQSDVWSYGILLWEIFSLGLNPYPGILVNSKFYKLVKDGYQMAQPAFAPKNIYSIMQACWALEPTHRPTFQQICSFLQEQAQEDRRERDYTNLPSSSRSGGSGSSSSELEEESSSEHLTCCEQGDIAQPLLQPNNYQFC
Procedure: Detection of CSF1R Phosphorylation Activity at Cell Level
THP-1 (ATCC), human acute monocytic leukemia cells. The cells were cultured in an RPMI 1640 medium containing 10% FBS.
as §1
• Human phosphorylation-CSF1R ELISA kit: R&D, #DYC3268-2; • RPMI 1640 culture solution: GIBCO, 910491; • Human M-CSF recombinant cytokine: R&D, 9216-MC-500; • Cell lysis buffer: Cell Signal, 99803S; • 1×PBS buffer (1 L): 8.0 g of NaCl, 0.2 g of KCl, 3.58 g of Na2HPO4-12H2O, 0.24 g of KH2PO4 were dissolved in 1 L of dd H2O, and the pH was adjusted to 7.4; • Blocking solution: PBS buffer containing 1% BSA; • PBST washing liquid: PBS buffer containing 0.05% Tween-20; • Chromogenic substrate: R&D, #DY999; • 2N H2SO4; • Microwell plate reader: Labsystems Multiskan K3: Thermo; Envision: Perkin Elmer; • ELISA plate: Corning, #9018; • Cell culture plate: Facol, #353027. 3. Treatment of cells and preparation of lysis buffer
THP-1 cells were resuspended in RPMI-1640 culture solution containing 2% FBS, and the culture was added to a 96-well plate at a density of 5×10^4/well, 50 μL/well, and cultured in a cell incubator at 5% CO2 and 37° C. overnight; The test compound was diluted with a serum-free RPMI-1640 medium to 3, 1.1, 0.37, 0.12, 0.04, 0.014, 0.005 and 0.002 μM, and the concentration of DMSO was 5%. 5 μL of the diluted compound was added to the 50 μL cell culture system, the culture was cultured in a 5% CO2, 37° C. cell incubator for 60 min, 300 ng/mL of M-CSF was added to the cells, and the mixture was stimulated in the 37° C. cell incubator for 1 min, added 50 μL of cell lysis buffer, and stored in a refrigerator at −80° C.
100 μL/well of the p-CSF1R capture antibody diluted to 0.8 μg/mL with PBS was added to the ELISA plate, and the plate was coated on a shaker at room temperature overnight. The culture was washed with PBST, and then added blocking solution and incubated at room temperature for 2 h. The culture was washed with PBST, added 90 μL of cell lysis buffer, and incubated on a shaker at 25° C. for 2 h. The plate was washed with PBST three times, added 100 μL of anti-p-tyrosine-HRP detection antibody diluted with 0.1% PBS-BSA diluent, and incubated on a shaker at 25° C. for 2 h. The plate was washed with PBST washing liquid, added 100 μL of chromogenic substrate and incubated at room temperature for 10-20 min. The reaction was stopped by adding 50 μL of 2N H2SO4. The optical density signal (450/570 nm) of each well was detected in Labsystems Multiskan K3 or Envision.
wherein • Drug-treated well read-out: indicating the optical density signal of a cell well with the test compound treatment. • Background read-out: indicating the optical density signal of a well without cells but with cell lysis buffer. • Cell well read-out: indicating the optical density signal of a cell well not treated with the compound. 6. Calculation of IC50: obtained by using XL-Fit 5.3 software. 7. Test results

Sequence of Recombinant human CSF1R kinase (P07333 20-972): as above

| Structure (SMILES) | IC50 [1] [nM] | IC50 (Ba/F3^BCR-FMS-11 cells; Mus musculus, 72 h) [nM] | IC50 [2] [nM] | IC50 (Ba/F3^BCR-FMS-11 cells; 72 hours) [nM] |
| --- | --- | --- | --- | --- |
| COc1ccc(C(=O)Nc2ccc(Oc3ccnc(-c4cnn(C)c4)c3)cn2)c(=O)n1C [Compound 3, 6-methoxy-1-methyl-N-(5-((2-(1-methyl-1H-pyrazol-4-yl)pyridin-4-yl)oxy)pyridin-2-yl)-2-oxo-1,2-dihydropyridine-3-carboxamide] | 5 | 12 | 63 | – |
| Cn1cc(Nc2cc(Oc3cnc(NC(=O)c4cccn(C)c4=O)c(F)c3)ccn2)cn1 [Compound 4, N-(3-fluoro-5-((2-((1-methyl-1H-pyrazol-4-yl)amino)pyridin-4-yl)oxy)pyridin-2-yl)-1-methyl-2-oxo-1,2-dihydropyridine-3-carboxamide] | 66 | 60 | 28 | – |
| Cc1ncc(C(=O)Nc2ccc(Oc3cc(-c4cnn(C)c4)ncn3)cn2)c(=O)n1C [Compound 5, 1,2-dimethyl-N-(5-((6-(1-methyl-1H-pyrazol-4-yl)pyrimidin-4-yl)oxy)pyridin-2-yl)-6-oxo-1,6-dihydropyrimidine-5-carboxamide] | 22 | 47 | 11 | – |
| CC(C)n1cccc(C(=O)Nc2ccc(Oc3ccnc(-c4cnn(C)c4)n3)cn2)c1=O [Compound 6, 1-isopropyl-N-(5-((2-(1-methyl-1H-pyrazol-4-yl)pyrimidin-4-yl)oxy)pyridin-2-yl)-2-oxo-1,2-dihydropyridine-3-carboxamide] | 7 | 15 | 21 | – |
| Cc1ncc(C(=O)Nc2ccc(Oc3ccnc(-c4cnn(C)c4)n3)cn2)c(=O)n1C [Compound 7, 1,2-dimethyl-N-(5-((2-(1-methyl-1H-pyrazol-4-yl)pyrimidin-4-yl)oxy)pyridin-2-yl)-6-oxo-1,6-dihydropyrimidine-5-carboxamide] | 67 | 39 | 25 | – |
| Cc1ncc(C(=O)Nc2ccc(Oc3ccnc(-c4cnn(C)c4)c3)cn2)c(=O)n1C [Compound 8, 1,2-dimethyl-N-(5-((2-(1-methyl-1H-pyrazol-4-yl)pyridin-4-yl)oxy)pyridin-2-yl)-6-oxo-1,6-dihydropyrimidine-5-carboxamide] | 4 | 7 | 4 | – |
| Cn1cc(-c2cc(Oc3ccc(NC(=O)c4ccc[nH]c4=O)nc3)ccn2)cn1 [Compound 9, N-(5-((2-(1-methyl-1H-pyrazol-4-yl)pyridin-4-yl)oxy)pyridin-2-yl)-2-oxo-1,2-dihydropyridine-3-carboxamide] | 12 | 107 | 105 | – |
| Cn1cc(-c2cc(Oc3ccc(NC(=O)c4cncn(C)c4=O)nc3)ccn2)cn1 [Compound 10] | 15 | 88 | 62 | – |
| Cn1cc(-c2cc(Oc3ccc(NC(=O)c4cnc5n(c4=O)CCC5)nc3)ccn2)cn1 [Compound 11] | 5 | 6 | 6 | – |
| Cc1c(F)cc(C(=O)Nc2ccc(Oc3ccnc(-c4cnn(C)c4)c3)cn2)c(=O)n1C [Compound 12] | 9 | 66 | 143 | – |
| Cc1ncn(C)c(=O)c1C(=O)Nc1ccc(Oc2ccnc(-c3cnn(C)c3)c2)cn1 [Compound 13] | 91 | 231 | 42 | – |
| CC(C)n1cccc(C(=O)Nc2ccc(Oc3ccnc(-c4ncn(C)n4)c3)cn2)c1=O [Compound 15] | 34 | – | 215 | 493 |
| Cc1cnc(Nc2cc(Oc3ccc(NC(=O)c4cnc(C)n(C)c4=O)nc3)ccn2)s1 [Compound 16] | 88 | 45 | 20 | – |
| COc1cc(Oc2ccnc(-c3cnn(C)c3)c2)ccc1NC(=O)c1cccn(C(C)C)c1=O [Compound 18] | 13 | 57 | 60 | – |
| CC(C)n1cccc(C(=O)Nc2ccc(Oc3ccnc(-c4cnn(C)c4)c3)cc2F)c1=O [Compound 20] | 8 | 44 | 109 | – |
| Cn1cnc(-c2cc(Oc3cnc(NC(=O)c4cccn(C)c4=O)c(F)c3)ccn2)c1 [Compound 21] | 28 | 73 | 43 | – |
| Cn1cc(-c2cc(Oc3cnc(NC(=O)c4cccn(C)c4=O)c(F)c3)ccn2)cn1 [Compound 22] | 11 | 14 | 10 | – |
| Cc1ncc(C(=O)Nc2ncc(Oc3ccnc(-c4cnn(C)c4)c3)cc2F)c(=O)n1C [Compound 23] | 22 | 45 | 38 | – |
| Cc1cc(Oc2ccnc(-c3cnn(C)c3)c2)cnc1NC(=O)c1cccn(C(C)C)c1=O [Compound 24] | 30 | 37 | 59 | – |
| CC(C)n1cccc(C(=O)Nc2ncc(Oc3ccnc(-c4cnn(C)c4)c3)cc2C#N)c1=O [Compound 25] | 16 | 66 | 38 | – |
| Cn1cc(-c2cc(Oc3ccc(NC(=O)c4ccc5n(c4=O)CCC5)nc3)ccn2)cn1 [Compound 27] | 8 | 8 | 18 | – |
| Cc1ncc(C(=O)Nc2ccc(Oc3ccnc(-c4cn(C)cn4)c3)cn2)c(=O)n1C [Compound 30] | 35 | 24 | 14 | – |
| Cc1cn(-c2cc(Oc3ccc(NC(=O)c4cnc(C)n(C)c4=O)nc3)ccn2)cn1 [Compound 32] | 59 | 99 | 15 | – |
| Cc1ncc(C(=O)Nc2ccc(Oc3ccnc(-c4cccnc4)c3)cn2)c(=O)n1C [Compound 33] | 62 | 58 | 15 | – |
| Cc1ncc(C(=O)Nc2ccc(Oc3ccnc(-c4ccccn4)c3)cn2)c(=O)n1C [Compound 34] | 79 | 125 | 24 | – |
| Cc1cccc(Nc2cc(Oc3ccc(NC(=O)c4cnc(C)n(C)c4=O)nc3)ccn2)n1 [Compound 36] | 28 | – | 8 | 23 |
| Cn1cc(-c2cc(Oc3ccc(NC(=O)c4cnc(O)n(C)c4=O)nc3)ccn2)cn1 [Compound 134, 2-hydroxy-1-methyl-N-(5-((2-(1-methyl-1H-pyrazol-4-yl)pyridin-4-yl)oxy)pyridin-2-yl)-6-oxo-1,6-dihydropyrimidine-5-carboxamide] | – | 526 | – | – |
| Cc1ncc(C(=O)Nc2ccc(Oc3ccnc(-c4cn(C)nc4O)c3)cn2)c(=O)n1C [Compound 135, N-(5-((2-(3-hydroxy-1-methyl-1H-pyrazol-4-yl)pyridin-4-yl)oxy)pyridin-2-yl)-1,2-dimethyl-6-oxo-1,6-dihydropyrimidine-5-carboxamide] | 12 | 7 | – | – |
